Assay results reported in patent EP1611148B1, “NOVEL NITRILE GLYCOSIDE USEFUL AS A BIO-ENHANCER OF DRUGS AND NUTRIENTS, PROCESS OF ITS ISOLATION FROM MORINGA OLEIFERA” (Council of Scientific and Industrial Research, priority 2003, dated 2004).

What was measured:
M smegmatis (MC^2 155) = experiment: Bioactivity enhancement of antibiotics (killing efficiency, broth assay) against M smegmatis; settings: alone or with Niaziridin @ 1.0 µg/ml
B subtilis (MTCC121) = experiment: Bioactivity enhancement of antibiotics (killing efficiency, broth assay) against B subtilis; settings: alone or with Niaziridin @ 1.0 µg/ml
E.coli (CA8000) = settings: 6 ug/mL
C.albicans = experiment: Enhancement of anticandidial activity of clotrimazole (broth assay)
Staphylococcus aurues = settings: in combination with 5-Methoxy hydnocarpin (5-MHC); cited from earlier work
[1] = anaesthetized rat, 1-10 mg/ kg I.V; cited from earlier work
E.coli CA8000 = experiment: Enhancement of bacterial transformation with pUC18 plasmid DNA, strain CA8000
[2] = tested on: M.tuberculosis H37Rv (ATCC 27294); experiment: Bioactivity enhancement of anti-tubercular drugs, radiometric BACTEC 460 TB system; assay type: cell-based, Mycobacterium tuberculosis
Source text: Since, the bioenhancer compound was able to enhance the activity of antibiotics against Gram (+) bacteria such as M.smegmatis, our subsequent interest was to test the compound against M.tuberculosis H37Rv (ATCC 27294) (Philipp et al 1996; Proc.Natl.Acad.Sci USA 93, 3132-3137), the causal organism of tuberculosis. To accomplish this we employed a radiometric assay using the BACTEC 460 TB system manufactured by M/S Becton Dickinson Ltd., USA. The antimycobacterial property of the drugs in combination with the bioenhancer was studied as per the recommended drug sensitivity protocol prescribed by the manufacturer (BACTEC 460 TB system: Product & Procedure Manual, MA 0029, 1996; Becton Dickinson Co., USA). Briefly the procedure is described below. • (a) The 12 B vials as provided by the manufacture were pre-tested prior to inoculation to establish the recommended CO2 atmosphere. […] After mixing thoroughly, 0.1 ml of this dilution was added into the control 12 B vial (without a drug). • (d) Biosafety precautions were taken as recommended by the manufacturer. • (e) Vials were tested daily in BACTEC 460 TB system for 12 days at approximately the same time each day as recommended by the manufacturer. The mycobacterial growth is expressed as Growth Index (GI) and compared to that of the control vials (antibiotic alone).

[3] = Bioavailability test using gastro-intestinal epithelium (U-tube); assay type: in vitro ADME, goat; settings: Vitamine B 12, in combination; Figure 3
Source text: Specially designed U-tubes of glass consisting of two components (opposite-L type) were used in which one open end of an L-shaped was tapered to fit within the end of the other L-tube (as described in US Patent # 6,410,059). The membrane of goat gut (initial part) was stretched and fixed to act as the barrier between the two ends such that by joining the two L-tubes, a U-tube was made. Sterile distilled water was then filled in both the sides to equal height/level. The antibiotic/compound was added to the donor tube (tapered) and through spectro-photometer, the transfer of molecule was observed using UV and visible absorption maxima of the respective molecules by taking the OD at defined wavelengths (264 nm for isoniazid).

[4] = tested on: Escherichia coli, CA 8000; experiment: Enhancement of adsorption of λ phage on bacteria; settings: cells pretreated with niaziridin @ 1 ug/ml
Description: Overnight grown bacterial culture (Escherichia coli, CA 8000) was divided into 5 ml of aliquot each in screw cap tubes. One of the tube with the bacterial culture was treated with niaziridin to a final concentration of 1µg/ml. Both the control and the treated tubes were incubated at 37°C for 4 hours. The cultures were then infected with λ phage (MOI=10) for 10minutes at 37°C (for adsorption) followed by centrifugation at 10000 RPM for 10 minutes at 4°C.
The supernatant and the pellets for both treated and untreated cultures were then compared for the phage titer by plating on top agar containing sensitive bacteria at different dilutions.

E.coli DH5α = experiment: Enhancement of bacterial transformation with pUC18 plasmid DNA, strain DH5α
Description: Overnight grown bacterial E.coli DH5α (Sambrook at al^28) cells were diluted to 10 folds in growth medium and treated with niaziridin @1-10µg/ml for 4 hours at 37°C in a shaker (200 RPM).
These log phase cells were then treated with calcium chloride to induce competence and then transformed with pUC18 plasmid DNA and plated on Luria agar plates containing 100µg/ml ampicillin.
The colonies thus appeared, on the plates for both treated and untreated cultures were scored.

[5] = cells pre treated with niaziridin at 1 ug/ml
[6] = cells pre treated with niaziridin at 10 ug/ml

With `CC1(C)S[C@@H]2[C@H](NC(=O)[C@H](N)c3ccccc3)C(=O)N2[C@H]1C(=O)O` [Amp, ampicillin] the Titre (M smegmatis (MC^2 155); Amp (0.1)) was 1.0x10^8, the Titre (B subtilis (MTCC121); Amp (0.01)) was 2.9x10^8 and the “% Survival” value (E.coli (CA8000)) was 3.69%.
For `Clc1ccccc1C(c1ccccc1)(c1ccccc1)n1ccnc1` [Clotrimazole, clotrimazole], the “Cfu / ml at 36 h” value (C.albicans; clotrimazole 0.5ug/ml, alone or with Niaziridin 10ug/ml, 36 h) was 23.6 x 10^5 Cfu / ml.
With `CCn1cc(C(=O)O)c(=O)c2ccc(C)nc21` [Nal, nalidixic acid] the Titre (M smegmatis (MC^2 155); Nal (1.0)) was 3.7x10^8 and the Titre (B subtilis (MTCC121); Nal (2.0)) was 3.1x10^7.
In the case of `CO[C@H]1/C=C/O[C@@]2(C)Oc3c(C)c(O)c4c(O)c(c(/C=N/N5CCN(C)CC5)c(O)c4c3C2=O)NC(=O)/C(C)=C\C=C\[C@H](C)[C@H](O)[C@@H](C)[C@@H](O)[C@@H](C)[C@H](OC(C)=O)[C@@H]1C` [Rif, rifampicin], the Titre (M smegmatis (MC^2 155); Rif (0.05)) is reported as 1.3x10^7 and the Titre (B subtilis (MTCC121); Rif (0.05)) is reported as 2.1x10^8.
With `CN(C)[C@@H]1C(=O)C(C(N)=O)=C(O)[C@@]2(O)C(=O)C3=C(O)c4c(O)cccc4[C@@](C)(O)[C@H]3C[C@@H]12` [Tet, tetracycline] the Titre (M smegmatis (MC^2 155); Tet (2.0)) was 1.2x10^8 and the Titre (B subtilis (MTCC121); Tet (1.0)) was 7.0x10^7.
For `COc1ccc2cc3[n+](cc2c1OC)CCc1cc2c(cc1-3)OCO2` [berberine], the “increase of antimicrobial activity of berberine” value (Staphylococcus aurues) is given as 200 folds.
For `CCOC(=S)NCc1ccc(OC2OC(C)C(O)C(O)C2O)cc1` (centres unmarked) [niazimicin], the “hypotensive and bradycardiac effect” value [1] is given as “produced hypotensive and bradycardiac effect”.
In the case of `COC(=S)NCc1ccc(O[C@@H]2O[C@@H](C)[C@H](O)[C@@H](O)[C@H]2O)cc1` [niazinin A], the “hypotensive and bradycardiac effect” value [1] is given as “produced hypotensive and bradycardiac effect”.
In the case of niaziminin A, the “hypotensive and bradycardiac effect” value [1] is listed as “produced hypotensive and bradycardiac effect”.
For niaziminin B, the “hypotensive and bradycardiac effect” value [1] is given as “produced hypotensive and bradycardiac effect”.
In the case of niazinin B, the “hypotensive and bradycardiac effect” value [1] is given as “produced hypotensive and bradycardiac effect”.
In the case of niaziridin, the “Fold enhancement in DNA transformation” value (E.coli CA8000; [5]) is reported as 1.9 Fold, the “Titre (10^3)” value (E.coli CA8000; [5]) is reported as 8.30 10^3 and the “Fold enhancement in DNA transformation” value (E.coli CA8000; [6]) is reported as 5.5 Fold. The “Titre (10^3)” value (E.coli CA8000; [6]) was 24.0 10^3, the “enhancement of antimycobacterial activity of isoniazid (Growth Index)” value ([2]; in combination with isoniazid, Figure 2) was “able to enhance the antimycobacterial activity” and the “enhancement of antimycobacterial activity of rifampicin (Growth Index)” value ([2]; in combination with rifampicin, Figure 1) was “able to enhance the antimycobacterial activity”. The “uptake of nutrients through the intestinal gut membrane” value [3] was “able to facilitate the uptake of nutrients like Vitamine B 12 through the intestinal gut membrane”, the “Pellet (10^7pfu)” value ([4]; MOI 5) was 7.7 10^7pfu and the “Supernatant (10^7pfu)” value ([4]; MOI 5) was 7.7 10^7pfu. The “Pellet (10^7pfu)” value ([4]; MOI 10) was 18.0 10^7pfu, the “Supernatant (10^7pfu)” value ([4]; MOI 10) was 8.0 10^7pfu and the “enhancement of the antifungal activity of clotrimazole” value (C.albicans; in combination, observed only at 10ug/ml of the compound) was 5-6 folds. For the same compound, the “Fold enhancement in DNA transformation” value (E.coli DH5α; [5]) was 1.9 Fold, the “Titre (10^4)” value (E.coli DH5α; [5]) was 16.0 10^4 and the “Fold enhancement in DNA transformation” value (E.coli DH5α; [6]) was 2.3 Fold. The “Titre (10^4)” value (E.coli DH5α; [6]) was 20.0 10^4.
